Results taken from PubChem BioAssay (NCI).
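These data come from cells grown in 96-well plates and exposed to compound for 48 hours at five concentrations. TGI is the concentration that stops growth completely.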

Assays:
Test in all cases: NCI anticancer screen, dose series, 48 h
[1] = test system: NCI-H226 lung
[2] = test system: EKVX NSCLC
[3] = test system: HL-60(TB) leukemia
[4] = test system: DLD-1 colon
[5] = test system: M19-MEL melanoma
[6] = test system: KM12 colon
[7] = test system: M14 melanoma
[8] = test system: NCI-H23 lung
[9] = test system: HCC-2998 colon
[10] = test system: HOP-92 NSCLC
[11] = test system: LOX IMVI melanoma
[12] = test system: HOP-62 NSCLC
[13] = test system: A549 NSCLC
[14] = test system: K-562 leukemia
[15] = test system: RXF-631 renal
[16] = test system: SNB-75 CNS
[17] = test system: LXFL 529 NSCLC
[18] = test system: SK-MEL-2 melanoma
[19] = test system: OVCAR-8 ovarian
[20] = test system: ACHN renal
[21] = test system: DMS 114 small cell lung
[22] = test system: SK-OV-3 ovarian
[23] = test system: SF-295 CNS
[24] = test system: OVCAR-5 ovarian
[25] = test system: IGROV1 ovarian
[26] = test system: MALME-3M melanoma
[27] = test system: XF 498 CNS
[28] = test system: UO-31 renal
[29] = test system: RPMI-8226 leukemia
[30] = test system: 786-0 renal
[31] = test system: A498 renal
[32] = test system: SF-268 CNS
[33] = test system: UACC-62 melanoma
[34] = test system: U251 CNS
[35] = test system: DMS 273 small cell lung
[36] = test system: COLO 205 colon
[37] = test system: HT29 colon
[38] = test system: HOP-18 NSCLC
[39] = test system: SW-620 colon
[40] = test system: CCRF-CEM leukemia
[41] = test system: KM20L2 colon
[42] = test system: RXF 393 renal
[43] = test system: NCI-H460 lung
[44] = test system: MOLT-4 leukemia
[45] = test system: SK-MEL-28 melanoma
[46] = test system: NCI-H522 lung
[47] = test system: TK-10 renal
[48] = test system: OVCAR-4 ovarian
[49] = test system: UACC-257 melanoma
[50] = test system: HCT-116 colon
[51] = test system: SK-MEL-5 melanoma
[52] = test system: SR leukemia
[53] = test system: SN12C renal
[54] = test system: SNB-78 CNS
[55] = test system: SNB-19 CNS
[56] = test system: HCT-15 colon
[57] = test system: OVCAR-3 ovarian
[58] = test system: SF-539 CNS
[59] = test system: CAKI-1 renal
[60] = test system: PC-3 prostate
[61] = test system: T-47D breast
[62] = test system: HS 578T breast
[63] = test system: MDA-N
[64] = test system: MDA-MB-435
[65] = test system: BT-549 breast
[66] = test system: MDA-MB-231 breast
[67] = test system: MCF7 breast
[68] = test system: DU-145 prostate

COc1ccc(C(O)/C(=N\NC(N)=S)c2nc3ccc([N+](=O)[O-])cc3[nH]c2=O)cc1OC (configuration not stated)
TGI [1]: > 100 µM
TGI [2]: > 100 µM
TGI [3]: > 100 µM
TGI [4]: > 100 µM
TGI [5]: > 100 µM
TGI [6]: > 100 µM
TGI [7]: > 100 µM
TGI [8]: > 100 µM
TGI [9]: > 100 µM
TGI [10]: > 100 µM
TGI [11]: > 100 µM
TGI [12]: > 100 µM
TGI [13]: > 100 µM
TGI [14]: > 100 µM
TGI [15]: > 100 µM
TGI [16]: > 100 µM
TGI [17]: > 100 µM
TGI [18]: > 100 µM
TGI [19]: > 100 µM
TGI [20]: > 100 µM
TGI [21]: > 100 µM
TGI [22]: > 100 µM
TGI [23]: > 100 µM
TGI [24]: > 100 µM
TGI [25]: > 100 µM
TGI [26]: > 100 µM
TGI [27]: > 100 µM
TGI [28]: > 100 µM
TGI [29]: > 100 µM
TGI [30]: > 100 µM
TGI [31]: > 100 µM
TGI [32]: > 100 µM
TGI [33]: > 100 µM
TGI [34]: > 100 µM
TGI [35]: > 100 µM
TGI [36]: > 100 µM
TGI [37]: > 100 µM
TGI [38]: > 100 µM
TGI [39]: > 100 µM
TGI [40]: > 100 µM
TGI [41]: > 100 µM
TGI [42]: > 100 µM
TGI [43]: > 100 µM
TGI [44]: > 100 µM
TGI [45]: > 100 µM
TGI [46]: > 100 µM
TGI [47]: > 100 µM
TGI [48]: > 100 µM
TGI [49]: > 100 µM

N/N=C1\C(=O)N(C2CCCCC2)C(=O)C1C(=O)NC1CCCCC1 (configuration not stated)
TGI [50]: > 100 µM
TGI [51]: > 100 µM
TGI [1]: > 100 µM
TGI [2]: > 100 µM
TGI [3]: 89.3 µM
TGI [4]: > 100 µM
TGI [5]: > 100 µM
TGI [52]: > 100 µM
TGI [6]: > 100 µM
TGI [7]: > 100 µM
TGI [8]: > 100 µM
TGI [9]: > 100 µM
TGI [53]: 93.6 µM
TGI [10]: > 100 µM
TGI [11]: > 100 µM
TGI [12]: > 100 µM
TGI [13]: > 100 µM
TGI [54]: > 100 µM
TGI [14]: > 100 µM
TGI [15]: > 100 µM
TGI [16]: > 100 µM
TGI [55]: > 100 µM
TGI [17]: > 100 µM
TGI [18]: 74.7 µM
TGI [19]: > 100 µM
TGI [20]: > 100 µM
TGI [21]: > 100 µM
TGI [22]: > 100 µM
TGI [23]: > 100 µM
TGI [24]: > 100 µM
TGI [25]: > 100 µM
TGI [26]: > 100 µM
TGI [27]: > 100 µM
TGI [56]: > 100 µM
TGI [28]: > 100 µM
TGI [29]: > 100 µM
TGI [30]: > 100 µM
TGI [31]: > 100 µM
TGI [32]: > 100 µM
TGI [33]: > 100 µM
TGI [34]: > 100 µM
TGI [36]: > 100 µM
TGI [37]: > 100 µM
TGI [38]: > 100 µM
TGI [39]: > 100 µM
TGI [40]: > 100 µM
TGI [41]: 39.9 µM
TGI [43]: > 100 µM
TGI [44]: > 100 µM
TGI [57]: 51 µM
TGI [58]: > 100 µM
TGI [45]: > 100 µM
TGI [46]: > 100 µM
TGI [59]: > 100 µM
TGI [48]: > 100 µM
TGI [49]: > 100 µM

NC(N)=NS(=O)(=O)c1ccc(NCc2c3ccccc3nc3ccccc23)cc1
TGI [50]: 56.2 µM
TGI [51]: 62.8 µM
TGI [1]: 4.85 µM
TGI [2]: > 71.7 µM
TGI [3]: 10.9 µM
TGI [4]: > 77 µM
TGI [5]: > 100 µM
TGI [52]: 12.6 µM
TGI [6]: 70.1 µM
TGI [7]: 64.7 µM
TGI [8]: 13.2 µM
TGI [9]: 66.1 µM
TGI [53]: 41.3 µM
TGI [10]: 9.01 µM
TGI [11]: 58 µM
TGI [12]: 5.92 µM
TGI [13]: > 100 µM
TGI [54]: > 66.9 µM
TGI [14]: > 93.6 µM
TGI [15]: > 70.1 µM
TGI [16]: 9.02 µM
TGI [55]: 20.7 µM
TGI [60]: > 100 µM
TGI [17]: 44.3 µM
TGI [18]: > 67 µM
TGI [19]: 53.8 µM
TGI [20]: 30.5 µM
TGI [21]: 16 µM
TGI [22]: 27.3 µM
TGI [23]: 22 µM
TGI [24]: > 100 µM
TGI [61]: 23.5 µM
TGI [25]: 65 µM
TGI [26]: 49.7 µM
TGI [56]: > 100 µM
TGI [62]: 28.6 µM
TGI [28]: 87.4 µM
TGI [29]: > 72.5 µM
TGI [30]: 9.65 µM
TGI [31]: 12 µM
TGI [32]: 23.1 µM
TGI [63]: > 100 µM
TGI [33]: 35.2 µM
TGI [34]: 10.9 µM
TGI [35]: > 61.6 µM
TGI [36]: > 100 µM
TGI [37]: > 100 µM
TGI [38]: > 86.8 µM
TGI [64]: > 100 µM
TGI [39]: > 87.7 µM
TGI [65]: 34.3 µM
TGI [40]: 9.03 µM
TGI [66]: > 100 µM
TGI [41]: > 100 µM
TGI [42]: 42.1 µM
TGI [43]: 19.2 µM
TGI [44]: > 16.5 µM
TGI [67]: 17.5 µM
TGI [57]: 49.6 µM
TGI [68]: > 100 µM
TGI [58]: 4.72 µM
TGI [45]: > 97.1 µM
TGI [46]: 26.9 µM
TGI [59]: 69.2 µM
TGI [47]: > 88 µM
TGI [48]: > 100 µM
TGI [49]: > 69.3 µM
